Assay results as given in US20090085344A1, “Organic fluorescent sulfonyl ureido benzoxazinone pigments” (Honeywell International Inc., priority 2007, published 2009).

What was measured:
Assay type in all cases: physicochemical
[1] = Fluorescence emission and excitation maxima of the powder
Description: The benzoxazinone compounds of the present disclosure are colorless, and fluoresce in the visible region. More specifically, the benzoxazinone compounds of the present disclosure produce a bright emission in a region from about 520 nm to about 540 nm wavelength when irradiated by UV light energy at about 366 nm wavelength. The benzoxazinone compounds have an excitation maximum at about 340 nm to about 420 nm wavelength.
(§1) In accordance with the present disclosure, 1-(para-toluenesulfonyl)-3-[2-(4-oxo-4H-benzo[d][1,3]oxazine-2-yl)-phenyl]urea, also named 1-(4-methylphenylsulfonyl)-3-[2-(4-oxo-4H-benzo[d][1,3]oxazine-2-yl)-phenyl]urea, where R^1, R^2, R^3 and R^4 are each hydrogen, and R^5 is 4-methylphenyl, was prepared according to the following procedure: A 250 mL three-neck bottle was charged at room temperature with anthranoylanthranilic acid (0.05 mol) and 100 mL methyl ethyl ketone. Para-toluenesulfonyl isocyanate (0.05 mol) was then added, with stirring, and the reaction mixture was heated under reflux at about 80° C. for about 4 hours. Thereafter, the resulting suspension was cooled to about 40° C., and acetic anhydride (40 mL) was added. The resulting mixture was heated for an additional 3 hours. After cooling to about 10° C., the precipitate was filtered under suction, washed with acetone, and dried at about 50° C. under atmospheric pressure to produce a white powder in about 70% -85% yield. The Emission (fluorescence) maximum of the resultant powder was 526 nm. The excitation maximum is/was 380 nm. […] Intensity of fluorescence of the powder was 350 cd/m^2, as measured with a Minolta luminance meter under 365 nm excitation. Solubility of the powder in 2-butanone was less than 0.5% at room temperature.

[2] = Intensity of fluorescence of the powder, Minolta luminance meter under 365 nm excitation
Procedure: as §1

[3] = Solubility of the powder in 2-butanone; conditions: room temperature
Procedure: as §1

[4] = Lightfastness: relative intensities at 0 hours and after 104 hours (FIGS. 1 and 2); conditions: compared with Lumilux CD 397 and Lumilux CD 302
Procedure: FIG. 1 is a comparative bar graph of the lightfastness of 1-(para-toluenesulfonyl)-3-[2-(4-oxo-4H-benzo[d]-[1,3]oxazine-2-yl)-phenyl]urea (compound 7), as compared with aliphatic ureidobenzoxazinone (UBO)(compound 11), Nitril-AUBO (compound 33), Lumiluxg CD 397, and Lumilux® CD 302, by measuring relative intensities at 0 hours and after 104 hours.
FIG. 2 is a comparative bar graph of the percent (%) loss of intensity of lightfastness of 1-(para-toluenesulfonyl)-3-[2-(4-oxo-4H-benzo[d]-[1,3]oxazine-2-yl)-phenyl]urea (compound 7) relative to compound 11, compound 33, Lumilux® CD 397, and Lumilux® CD 302.
Referring now to the Figures, FIG. 1 illustrates a comparative bar graph of the intensity of lightfastness (in cd/m^2) of 1-(para-toluenesulfonyl)-3-[2-(4-oxo-4H-benzo[d]-[1,3]oxazine-2-yl)-phenyl]urea (compound 7), which is shown relative to various ureido benzoxazinone compounds (UBO), such as aliphatic UBO (compound 11), Nitril-AUBO (compound 33), and Lumilux® CD 397 and Lumilux® CD 302.
FIG. 2 is a comparative bar graph illustrating of the percent loss of intensity of lightfastness of 1-(para-toluenesulfonyl)-3-[2-(4-oxo-4H-benzo[d]-[1,3]oxazine-2-yl)-phenyl]urea (compound 7) compared with ureido benzoxazinone compounds (UBO) such as compound 11, compound 33, Lumilux® CD 397 and Lumiluxg CD 302.

| Emission (fluorescence) maximum of the resultant powder [1] [nm] | excitation maximum [1] [nm] | Intensity of fluorescence of the powder [2] | Solubility of the powder in 2-butanone [3] | loss of lightfastness intensity ([4]; after 104 hours) | SMILES | degree (intensity) of lightfastness ([4]; 0 hours and after 104 hours) |
| --- | --- | --- | --- | --- | --- | --- |
| 526 | 380 | 350 cd/m^2 | less than 0.5% | lower loss of lightfastness intensity | Cc1ccc(S(=O)(=O)NC(=O)Nc2ccccc2-c2nc3ccccc3c(=O)o2)cc1 [Example 1, 1-(para-toluenesulfonyl)-3-[2-(4-oxo-4H-benzo[d]-[1,3]oxazine-2-yl)-phenyl]urea] | greater degree (intensity) of lightfastness |
| 528 | 380 | 320 cd/m^2 | less than 0.5% |  | O=C(Nc1ccccc1-c1nc2ccccc2c(=O)o1)NS(=O)(=O)c1ccccc1 [Example 2, 1-(phenylsulfonyl)-3-[2-(4-oxo-4H-benzo[d]-[1,3]oxazine-2-yl)-phenyl]urea] |  |
| 530 | 380 | 260 cd/M^2 | less than 1% |  | Cc1ccccc1S(=O)(=O)NC(=O)Nc1ccccc1-c1nc2ccccc2c(=O)o1 [Example 3, 1-(2-methylphenylsulfonyl)-3-[2-(4-oxo-4H-benzo[d]-[1,3]oxazine-2-yl)-phenyl]urea] |  |
| 539 | 380 | 330 cd/m^2 | less than 0.5% |  | O=C(Nc1ccccc1-c1nc2ccccc2c(=O)o1)NS(=O)(=O)c1ccc(Cl)cc1 [Example 4, 1-(4-chlorophenylsulfonyl)-3-[2-(4-oxo-4H-benzo[d]-[1,3]oxazine-2-yl)-phenyl]urea] |  |
